According to patent US11612661B2 (priority 2019, dated 2023):
Bridge positions count the residues as written; N and C are the ends. Square brackets hold non-standard residues; d marks the D form. Triazole bridges read from a SMILES are 1,4-linked. Peptide text beside a SMILES is read from it. * marks the point of attachment. Tyr(3-I) = N[C@@H](Cc1ccc(O)c(I)c1)C(=O)O; Orn(N3) = [N-]=[N+]=NCCC[C@H](N)C(=O)O; Dap(N3) = [N-]=[N+]=NC[C@H](N)C(=O)O; Aha = [N-]=[N+]=NCC[C@H](N)C(=O)O; NMeR = CN[C@@H](CCCNC(=N)N)C(=O)O; X1 = O=C(O)C[C@@H](N*)c1ccc(O)cc1; Cit = NC(=O)NCCC[C@H](N)C(=O)O; Hpra = C#CCC[C@H](N)C(=O)O; Pra = C#CC[C@H](N)C(=O)O; Sar = CNCC(=O)O

Tests used:
[1] = molecular target: rat α9α10 nAChR (Rattus norvegicus, UniProt P43144+Q9JLB5); experiment: cell-based; assay type: cell-based; details: α9α10 nAChR IC50 (nM) Rat
[2] = molecular target: human α9α10 nAChR (Homo sapiens, UniProt Q9GZZ6+Q9UGM1); experiment: cell-based; assay type: cell-based
human α9α10 nAChR, sequence (Q9UGM1 26-479 limits assumed): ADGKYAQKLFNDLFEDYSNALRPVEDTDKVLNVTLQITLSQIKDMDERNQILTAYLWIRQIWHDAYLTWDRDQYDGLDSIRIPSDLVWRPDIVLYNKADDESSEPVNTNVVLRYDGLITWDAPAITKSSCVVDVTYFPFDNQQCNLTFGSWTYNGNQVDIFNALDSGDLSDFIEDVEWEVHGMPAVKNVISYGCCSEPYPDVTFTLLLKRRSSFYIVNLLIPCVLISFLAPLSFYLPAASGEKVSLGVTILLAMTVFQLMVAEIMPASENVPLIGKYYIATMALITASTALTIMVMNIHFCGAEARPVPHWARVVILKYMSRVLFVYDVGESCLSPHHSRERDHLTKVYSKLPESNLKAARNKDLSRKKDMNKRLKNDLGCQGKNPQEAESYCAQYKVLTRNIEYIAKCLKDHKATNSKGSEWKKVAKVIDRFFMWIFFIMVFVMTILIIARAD
human α9α10 nAChR, sequence (Q9GZZ6 25-450 limits assumed): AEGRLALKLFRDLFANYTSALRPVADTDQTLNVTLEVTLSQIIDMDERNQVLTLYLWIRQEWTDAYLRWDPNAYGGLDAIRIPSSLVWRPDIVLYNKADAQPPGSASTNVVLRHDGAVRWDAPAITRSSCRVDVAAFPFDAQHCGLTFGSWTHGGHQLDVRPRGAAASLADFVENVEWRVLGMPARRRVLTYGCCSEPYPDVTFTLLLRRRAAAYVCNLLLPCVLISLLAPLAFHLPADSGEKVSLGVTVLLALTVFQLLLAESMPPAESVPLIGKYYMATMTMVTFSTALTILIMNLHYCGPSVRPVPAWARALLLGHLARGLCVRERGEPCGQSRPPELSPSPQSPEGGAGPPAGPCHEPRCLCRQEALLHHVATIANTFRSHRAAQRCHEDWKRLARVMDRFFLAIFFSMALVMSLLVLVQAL

rat α9α10 nAChR, sequence (P43144 26-479 limits assumed): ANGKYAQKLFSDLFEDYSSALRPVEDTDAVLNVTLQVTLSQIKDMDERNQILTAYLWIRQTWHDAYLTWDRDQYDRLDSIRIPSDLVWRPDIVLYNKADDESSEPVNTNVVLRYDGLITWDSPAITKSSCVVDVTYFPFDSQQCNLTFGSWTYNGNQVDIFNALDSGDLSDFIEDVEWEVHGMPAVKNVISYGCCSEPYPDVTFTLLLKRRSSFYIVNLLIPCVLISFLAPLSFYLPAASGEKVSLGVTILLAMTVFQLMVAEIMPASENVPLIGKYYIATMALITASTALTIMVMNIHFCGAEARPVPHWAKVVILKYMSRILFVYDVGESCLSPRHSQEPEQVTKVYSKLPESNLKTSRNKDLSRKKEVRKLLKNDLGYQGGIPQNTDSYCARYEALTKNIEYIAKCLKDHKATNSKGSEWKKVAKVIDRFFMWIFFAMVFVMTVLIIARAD
rat α9α10 nAChR, sequence (Q9JLB5 25-447 limits assumed): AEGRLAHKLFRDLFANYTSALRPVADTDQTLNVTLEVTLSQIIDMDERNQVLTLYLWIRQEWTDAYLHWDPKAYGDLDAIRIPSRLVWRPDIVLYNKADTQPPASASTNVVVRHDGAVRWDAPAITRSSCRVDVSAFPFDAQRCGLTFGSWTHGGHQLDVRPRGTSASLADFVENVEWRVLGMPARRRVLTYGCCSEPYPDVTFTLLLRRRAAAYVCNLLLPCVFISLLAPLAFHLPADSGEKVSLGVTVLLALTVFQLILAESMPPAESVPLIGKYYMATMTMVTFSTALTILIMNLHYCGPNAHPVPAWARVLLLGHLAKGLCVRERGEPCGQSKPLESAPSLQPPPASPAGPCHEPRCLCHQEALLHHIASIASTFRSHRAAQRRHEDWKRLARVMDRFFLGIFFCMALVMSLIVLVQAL

Row | SMILES | IC50 [1] | IC50 [2]
1 | C[C@@H](O)[C@@H]1NC(=O)[C@@H]2Cn3cc(nn3)CCC[C@@H](C(=O)N[C@@H](Cc3ccc(O)cc3)C(=O)O)NC(=O)[C@H](CCC(N)=O)NC(=O)[C@H](Cc3c[nH]c4ccccc34)NC(=O)[C@H](CCCNC(N)=O)NC(=O)[C@H](CSSC[C@H](NC(=O)CN)C(=O)N2)NC(=O)[C@H](CCCNC(=N)N)NC(=O)[C@@H]2CCCN2C(=O)[C@H](CC(=O)O)NC1=O [Ik, L-tyrosine, glycyl-L-cysteinyl-L-alanyl-L-threonyl-L-α-aspartyl-L-prolyl-L-arginyl-L-cysteinyl-N5-(aminocarbonyl)-L-ornithyl-L-tryptophyl-L-glutaminyl-L-(2S)-2-aminopentanoyl-cyclic (2→8)-disulfide-cyclic 3^3,12^5-(1H-1,2,3-triazole-1,4-diyl)] | 9.5 ± 1.3 nM | 0.0166 ± 0.0011 µM
2 | C[C@@H](O)[C@@H]1NC(=O)[C@@H]2Cc3cn(nn3)CCC[C@@H](C(=O)N[C@@H](Cc3ccc(O)cc3)C(=O)O)NC(=O)[C@H](CCC(N)=O)NC(=O)[C@H](Cc3ccc(O)c(I)c3)NC(=O)[C@H](CCCNC(N)=O)NC(=O)[C@H](CSSC[C@H](NC(=O)CN)C(=O)N2)NC(=O)[C@H](CCCNC(=N)N)NC(=O)[C@@H]2CCCN2C(=O)[C@H](CC(=O)O)NC1=O [Ib, L-tyrosine, glycyl-L-cysteinyl-L-alanyl-L-threonyl-L-α-aspartyl-L-prolyl-L-arginyl-L-cysteinyl-N5-(aminocarbonyl)-L-ornithyl-L-3-iodotyrosyl-L-glutaminyl-L-norvalyl-cyclic (2→8)-disulfide-cyclic 3^3,12^5-(1H-1,2,3-triazole-4,1-diyl)] (H-GC[Pra]TDPRC[Cit][Tyr(3-I)]Q[Orn(N3)]Y-OH; disulfide 2-8; triazole 3-12) | 7 nM | 0.037 ± 0.0013 µM
3 | C[C@@H](O)[C@@H]1NC(=O)[C@@H]2Cc3cn(nn3)CCC[C@@H](C(=O)N[C@@H](Cc3ccc(O)cc3)C(=O)N[C@H](Cc3ccc(O)cc3)C(=O)O)NC(=O)[C@H](CCC(N)=O)NC(=O)[C@H](Cc3c[nH]c4ccccc34)NC(=O)[C@H](CCCNC(N)=O)NC(=O)[C@H](CSSC[C@H](NC(=O)CN)C(=O)N2)NC(=O)[C@H](CCCNC(=N)N)NC(=O)[C@@H]2CCCN2C(=O)[C@H](CC(=O)O)NC1=O [Io, D-tyrosine, glycyl-L-cysteinyl-L-alanyl-L-threonyl-L-α-aspartyl-L-prolyl-L-arginyl-L-cysteinyl-N5-(aminocarbonyl)-L-ornithyl-L-tryptophyl-L-glutaminyl-L-norvalyl-L-tyrosyl-cyclic (2→8)-disulfide-cyclic 3^3,12^5-(1H-1,2,3-triazole-4,1-diyl)] (H-GC[Pra]TDPRC[Cit]WQ[Orn(N3)]Y[dY]-OH; disulfide 2-8; triazole 3-12) | ≤ 10 nM | 0.059 µM
4 | C[C@@H](O)[C@@H]1NC(=O)[C@@H]2CCn3cc(nn3)CC[C@@H](C(=O)N[C@@H](Cc3ccc(O)cc3)C(=O)O)NC(=O)[C@H](CCC(N)=O)NC(=O)[C@H](Cc3c[nH]c4ccccc34)NC(=O)[C@H](CCCNC(N)=O)NC(=O)[C@H](CSSC[C@H](NC(=O)CN)C(=O)N2)NC(=O)[C@H](CCCNC(=N)N)NC(=O)[C@@H]2CCCN2C(=O)[C@H](CC(=O)O)NC1=O [Ii, L-tyrosine, glycyl-L-cysteinyl-(2S)-2-aminobutanoyl-L-threonyl-L-α-aspartyl-L-prolyl-L-arginyl-L-cysteinyl-N5-(aminocarbonyl)-L-ornithyl-L-tryptophyl-L-glutaminyl-L-(2S)-2-aminobutanoyl-cyclic (2→8)-disulfide-cyclic 3^4,12^4-(1H-1,2,3-triazole-1,4-diyl)] (H-GC[Aha]TDPRC[Cit]WQ[Hpra]Y-OH; disulfide 2-8; triazole 3-12) | 1.6 ± 0.6 nM | 0.0034 ± 0.0014 µM
5 | C[C@@H](O)[C@@H]1NC(=O)[C@@H]2CCCn3cc(nn3)C[C@@H](C(=O)N[C@@H](Cc3ccc(O)cc3)C(N)=O)NC(=O)[C@H](CCC(N)=O)NC(=O)[C@H](Cc3ccc(O)c(I)c3)NC(=O)[C@H](CCCNC(N)=O)NC(=O)[C@H](CSSC[C@H](NC(=O)CN)C(=O)N2)NC(=O)[C@H](CCCNC(=N)N)NC(=O)[C@@H]2CCCN2C(=O)[C@H](CC(=O)O)NC1=O [Ie, L-tyrosinamide, glycyl-L-cysteinyl-L-norvalyl-L-threonyl-L-α-aspartyl-L-prolyl-L-arginyl-L-cysteinyl-N5-(aminocarbonyl)-L-ornithyl-L-3-iodotyrosyl-L-glutaminyl-L-alanyl-cyclic (2→8)-disulfide-cyclic 3^5,12^3-(1H-1,2,3-triazole-1,4-diyl)] (H-GC[Orn(N3)]TDPRC[Cit][Tyr(3-I)]Q[Pra]Y-NH2; disulfide 2-8; triazole 3-12) | 6.6 ± 1.7 nM | 0.115 ± 0.056 µM
6 | C[C@@H](O)[C@@H]1NC(=O)[C@@H]2Cc3cn(nn3)C[C@@H](C(=O)N[C@@H](Cc3ccc(O)cc3)C(N)=O)NC(=O)[C@H](CCC(N)=O)NC(=O)[C@H](Cc3ccc(O)c(I)c3)NC(=O)[C@H](CCCNC(N)=O)NC(=O)[C@H](CSSC[C@H](NC(=O)CN)C(=O)N2)NC(=O)[C@H](CCCNC(=N)N)NC(=O)[C@@H]2CCCN2C(=O)[C@H](CC(=O)O)NC1=O [If, L-tyrosinamide, glycyl-L-cysteinyl-L-alanyl-L-threonyl-L-α-aspartyl-L-prolyl-L-arginyl-L-cysteinyl-N5-(aminocarbonyl)-L-ornithyl-L-3-iodotyrosyl-L-glutaminyl-L-alanyl-cyclic (2→8)-disulfide-cyclic 3^3,12^3-(1H-1,2,3-triazole-4,1-diyl)] (H-GC[Pra]TDPRC[Cit][Tyr(3-I)]Q[Dap(N3)]Y-NH2; disulfide 2-8; triazole 3-12) | 12.5 ± 8.7 nM | 1.52 ± 0.116 µM
7 | C[C@@H](O)[C@@H]1NC(=O)[C@@H]2CCCCNC(=O)CC[C@@H](C(=O)N[C@@H](Cc3ccc(O)cc3)C(N)=O)NC(=O)[C@H](CCC(N)=O)NC(=O)[C@H](Cc3ccc(O)c(I)c3)NC(=O)[C@H](CCCNC(N)=O)NC(=O)[C@H](CSSC[C@H](NC(=O)CN)C(=O)N2)NC(=O)[C@H](CCCNC(=N)N)NC(=O)[C@@H]2CCCN2C(=O)[C@H](CC(=O)O)NC1=O [Ix] (H-GCKTDPRC[Cit][Tyr(3-I)]QEY-NH2; disulfide 2-8; lactam 3-12) | 21 ± 1.4 nM | 0.123 ± 0.022 µM
8 | C[C@@H](O)[C@@H]1NC(=O)[C@@H]2CCCc3cn(nn3)C[C@@H](C(=O)N[C@@H](Cc3ccc(O)cc3)C(=O)O)NC(=O)[C@H](CCC(N)=O)NC(=O)[C@H](Cc3c[nH]c4ccccc34)NC(=O)[C@H](CCCNC(N)=O)NC(=O)[C@H](CSSC[C@H](NC(=O)CN)C(=O)N2)NC(=O)[C@H](CCCNC(=N)N)NC(=O)[C@@H]2CCCN2C(=O)[C@H](CC(=O)O)NC1=O [Ij, L-tyrosine, glycyl-L-cysteinyl-(2S)-2-aminopentanoyl-L-alanyl-L-threonyl-L-α-aspartyl-L-prolyl-L-arginyl-L-cysteinyl-N5-(aminocarbonyl)-L-ornithyl-L-3-iodotyrosyl-L-glutaminyl-L-alanyl-cyclic (2→8)-disulfide-cyclic 3^5,12^3-(1H-1,2,3-triazole-4,1-diyl)] | 69 ± 8.5 nM | 0.152 ± 0.071 µM
9 | C[C@@H](O)[C@@H]1NC(=O)[C@@H]2Cc3cn(nn3)CCC[C@@H](C(=O)N[C@@H](Cc3ccc(O)cc3)C(=O)N(C)CC(=O)O)NC(=O)[C@H](CCC(N)=O)NC(=O)[C@H](Cc3c[nH]c4ccccc34)NC(=O)[C@H](CCCNC(N)=O)NC(=O)[C@H](CSSC[C@H](NC(=O)CN)C(=O)N2)NC(=O)[C@H](CCCNC(=N)N)NC(=O)[C@@H]2CCCN2C(=O)[C@H](CC(=O)O)NC1=O [In, glycine, glycyl-L-cysteinyl-L-alanyl-L-threonyl-L-α-aspartyl-L-prolyl-L-arginyl-L-cysteinyl-N5-(aminocarbonyl)-L-ornithyl-L-tryptophyl-L-glutaminyl-L-norvalyl-L-tyrosyl-N-methyl-cyclic (2→8)-disulfide-cyclic 3^3,12^5-(1H-1,2,3-triazole-4,1-diyl)] (H-GC[Pra]TDPRC[Cit]WQ[Orn(N3)]Y[Sar]-OH; disulfide 2-8; triazole 3-12) | ≤ 10 nM | 0.037 ± 0.015 µM
10 | C[C@@H](O)[C@@H]1NC(=O)[C@@H]2Cc3cn(nn3)CCC[C@@H](C(=O)N[C@H](CC(=O)O)c3ccc(O)cc3)NC(=O)[C@H](CCC(N)=O)NC(=O)[C@H](Cc3c[nH]c4ccccc34)NC(=O)[C@H](CCCNC(N)=O)NC(=O)[C@H](CSSC[C@H](NC(=O)CN)C(=O)N2)NC(=O)[C@H](CCCNC(=N)N)NC(=O)[C@@H]2CCCN2C(=O)[C@H](CC(=O)O)NC1=O [Iu, (R)-3-(amino)-3-(4-hydroxyphenyl)propionic acid, glycyl-L-cysteinyl-L-alanyl-L-threonyl-L-α-aspartyl-L-prolyl-L-arginyl-L-cysteinyl-N5-(aminocarbonyl)-L-ornithyl-L-tryptophyl-L-glutaminyl-L-norvalyl-cyclic (2→8)-disulfide-cyclic 3^3,12^5-(1H-1,2,3-triazole-4,1-diyl)] (H-GC[Pra]TDPRC[Cit]WQ[Orn(N3)]-X1; disulfide 2-8; triazole 3-12) | < 30 nM | ~0.1 µM
11 | C[C@@H](O)[C@@H]1NC(=O)[C@@H]2Cc3cn(nn3)CCC[C@@H](C(=O)N(C)[C@@H](CCCNC(=N)N)C(=O)O)NC(=O)[C@H](CCC(N)=O)NC(=O)[C@H](Cc3c[nH]c4ccccc34)NC(=O)[C@H](CCCNC(N)=O)NC(=O)[C@H](CSSC[C@H](NC(=O)CN)C(=O)N2)NC(=O)[C@H](CCCNC(=N)N)NC(=O)[C@@H]2CCCN2C(=O)[C@H](CC(=O)O)NC1=O [Iv, L-arginine, glycyl-L-cysteinyl-L-alanyl-L-threonyl-L-α-aspartyl-L-prolyl-L-arginyl-L-cysteinyl-N5-(aminocarbonyl)-L-ornithyl-L-tryptophyl-L-glutaminyl-L-norvalyl-N-methyl-cyclic (2→8)-disulfide-cyclic 3^3,12^5-(1H-1,2,3-triazole-4,1-diyl)] (H-GC[Pra]TDPRC[Cit]WQ[Orn(N3)][NMeR]-OH; disulfide 2-8; triazole 3-12) | < 30 nM | ~0.1 µM
